The test system of assay [1] is IL-17 production by CD4 T cells. The assay is described as follows: Human Th17 Assay (IL-17 production by CD4 T cells). It is filed as cell-based. The settings on record: IL-17 in supernatant after 3 days, Th17 differentiation conditions. An excerpt: The human Thl7 assay tests the effect of RORyt modulatory compounds on IL-17 production by CD4 T cells under conditions which favor Th17 differentiation.
Total CD4^+ T cells were isolated from the peripheral blood mononuclear cells (PBMC) of healthy donors using a CD4^+ T cell isolation kit II, following the manufacturer's instructions (Miltenyi Biotec). Cells were resuspended in a medium of RPMI-1640 supplemented with 10% fetal bovine serum, penicillin, streptomycin, […], and β-mercaptoethanol and were added to 96-well plates at 1.5x10^5 per 100 µL per well. 50 µL of compound at titrated concentrations in DMSO were added into each well at final DMSO concentration at 0.2%. Cells were incubated for 1 hour, then 50 µL of Th17 cell differentiation medium was added to each well. The final concentrations of antibodies and cytokines (R&D Systems) in differentiation medium were: 3x10^6/mL anti-CD3/CD28 beads (prepared using human T cell activation/expansion kit, Miltenyi Biotec), 10 µg/mL anti-IL4, 10 µg/mL anti-IFNγ, 10 ng/mL IL1β, 10 ng/mL IL23, 50 ng/mL IL6, 3 ng/mL TGFβ and 20 U/mL IL2. Cells were cultured at 37 °C and 5% CO2 for 3 days. Supernatants were collected and the accumulated IL-17 in culture was measured by using MULTI-SPOT® Cytokine Plate following manufacture's instruction (Meso Scale Discovery). The plate was read using Sector Imager 6000, and IL-17 concentration was extrapolated from the standard curve. The IC50s were determined by GraphPad.

The target in assay [2] is T1, human RORγt ligand binding domain (RORγt LBD) (Homo sapiens, UniProt P51449).
T1 construct: His-tag (N); TurboTEV protease cleavage site (ENLYFQG) (N); made in house; host or cells: E. coli (pHIS1, modified pET vector)
T1 sequence (P51449 258-518): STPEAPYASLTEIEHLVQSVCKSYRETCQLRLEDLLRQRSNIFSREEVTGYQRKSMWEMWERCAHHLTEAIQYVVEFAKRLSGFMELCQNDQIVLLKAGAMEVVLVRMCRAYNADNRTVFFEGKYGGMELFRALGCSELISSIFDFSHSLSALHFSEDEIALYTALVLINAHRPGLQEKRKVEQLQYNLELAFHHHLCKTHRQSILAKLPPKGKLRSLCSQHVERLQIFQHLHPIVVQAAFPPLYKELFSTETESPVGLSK
Put plainly: ThermoFluor® Assay (RORγt thermal shift binding). The settings on record: 0.065 mg/mL RORγt, 60 µM 1,8-ANS, pH 7.0; estimated from concentration response curves. The procedure:
This approach is applicable to a wide variety of systems, and rigorous in theoretical interpretation through quantitation of equilibrium binding constants (KD).
The shift in the melting point described as a ΔTm is proportional to the concentration and affinity of the ligand. The compound potency may be compared as a rank order of either ATm values at a single compound concentration or in terms of KD values, estimated from concentration response curves.
ThermoFluor® experiments were carried out using instruments owned by Janssen Research and Discovery, L.L.C. through its acquisition of 3-Dimensional Pharmaceuticals, Inc. 1,8-ANS (Invitrogen) was used as a fluorescent dye. Protein and compound solutions are dispensed into black 384-well polypropylene PCR microplates (Abgene) and overlayed with silicone oil (1 µL, Fluka, type DC 200) to prevent evaporation.
Bar-coded assay plates are robotically loaded onto a thermostatically controlled PCR-type thermal block and then heated at a typical ramp-rate of 1 °C/minute for all experiments. Fluorescence was measured by continuous illumination with UV light (Hamamatsu LC6) supplied via fiber optic and filtered through a band-pass filter (380-400 nm; >6 OD cutoff). Fluorescence emission of the entire 384-well plate was detected by measuring light intensity using a CCD camera (Sensys, Roper Scientific) filtered to detect 500 ± 25 nm, resulting in simultaneous and independent readings of all 384 wells. Images were collected at each temperature, and the sum of the pixel intensity in a given area of the assay plate was recorded versus temperature. Reference wells contained RORyt without compounds, and the assay conditions were as follows: • 0.065 mg/mL RORγt • 60 µM 1,8-ANS • 100 mM Hepes, pH 7.0 • 10 mM NaCl • 2.5 mM GSH • 0.002% Tween-20
Project compounds were arranged in a pre-dosed mother plate (Greiner Bio-one) wherein compounds are serially diluted in 100% DMSO by 1:2 from a high concentration of 10 mM over 12 columns within a series (column 12 is a reference well containing DMSO, no compound). The compounds were robotically dispensed directly into assay plates (1x = 46 nL) using a Hummingbird capillary liquid handling instrument (Digilab). Following compound dispense, protein and dye in buffer was added to achieve the final assay volume of 3 µL, followed by 1 µL of silicone oil.

The target in a further assay is T2, human RORγt LBD (Homo sapiens, UniProt P51449).
T2 construct: expressed in transfected cells; host or cells: HEK293T
T2 sequence (P51449 258-518): T1 sequence (P51449 258-518)
Put plainly: RORγt (LBD) Reporter Assay (GAL4 luciferase, HEK293T cells). It is filed as cell-based. The settings on record: for IC50: compounds for 24 hours. The procedure: (§1) Compounds were assessed for RORgt functional modulation using either the RORgt ligand binding domain (LBD) reporter assay, or the RORgt full-length (FL) reporter assay.
A reporter assay was used to test functional activity of RORγt modulatory compounds on transcriptional activation driven by the RORγt LBD. Cells used in the assay were co-transfected with two constructs. The first construct, pBIND-RORγt LBD, contained the wild type human RORγt LBD fused to the DNA binding domain of the GAL4 protein. The second construct, pGL4.31 (Promega Cat no. C935A), contained multiple GAL4 responsive DNA elements upstream of firefly luciferase. […] The mutant construct was called pBIND-RORγt-AF2.
The pBIND vector contains the GAL4 DNA Binding Domain (GAL4 DBD) and the renilla luciferase gene under control of the SV40 promoter. Renilla luciferase expression serves as a control for transfection efficiency and cell viability.
The reporter assay was performed by transiently transfecting HEK293T cells with 5 µg of pBIND-RORγt LBD or pBIND-RORγt LBD-AF2 and 5 µg pGL4.31 (Promega Cat no. C935A) using Fugene 6 (Invitrogen Cat no. E2691) at a 1:6 ratio of DNA: Fugene 6 in a T-75 flask in which cells were at least 80% confluent. Twenty four hours after bulk transfection, cells were plated into 96-well plates at 50,000 cells/well in phenol-red free DMEM containing 5% Lipid Reduced FCS and Pen/Strep. Six hours after plating, cells were treated with compounds for 24 hours. Media was removed and cells were lysed with 50 µL 1x Glo Lysis Buffer (Promega). Dual Glo Luciferase Reagent (50 µL/well) was then added and firefly luciferase luminescence was read on an Envision after a ten minute incubation. Finally, Stop and Glo reagent (50 µL/well) was added and renilla luciferase luminescence was read on an Envision after a ten minute incubation. To calculate the effect of compounds on RORγt activity, the ratio of firefly to renilla luciferase was determined and plotted against compound concentration. Agonist compounds increase RORγt-driven luciferase expression, and antagonist or inverse agonist compounds decrease luciferase expression.
On the technique in general: A reporter such as luciferase makes a cellular process visible.

The next assay concerns the target T3, full-length human RORγt (Homo sapiens, UniProt P51449).
T3 construct: expressed in transfected cells; host or cells: HEK293T
T3 sequence (P51449 1-497 isoform P51449-2): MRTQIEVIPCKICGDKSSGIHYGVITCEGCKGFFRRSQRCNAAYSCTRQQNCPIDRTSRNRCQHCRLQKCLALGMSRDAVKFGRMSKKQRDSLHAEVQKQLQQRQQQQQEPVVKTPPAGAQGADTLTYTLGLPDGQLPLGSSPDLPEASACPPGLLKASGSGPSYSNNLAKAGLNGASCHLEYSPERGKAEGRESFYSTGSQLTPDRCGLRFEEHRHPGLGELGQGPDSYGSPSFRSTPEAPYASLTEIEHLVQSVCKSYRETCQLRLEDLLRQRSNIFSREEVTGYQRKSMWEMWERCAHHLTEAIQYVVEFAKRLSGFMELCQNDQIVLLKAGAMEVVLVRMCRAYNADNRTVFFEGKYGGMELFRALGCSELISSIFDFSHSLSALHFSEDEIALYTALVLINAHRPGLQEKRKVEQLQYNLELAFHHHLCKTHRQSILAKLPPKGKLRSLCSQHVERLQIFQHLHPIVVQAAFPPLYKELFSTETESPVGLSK
Put plainly: RORγt (full-length human) Reporter Assay (GAL4 luciferase, HEK293T cells). The settings on record: for inhibition at 0.67 µM: 0.67 µM compound concentration (footnote *), read-out: RORγt (FL) Reporter Assay, % inhibition (values marked *); for IC50: overnight (16 to 20 hours) incubation, read-out: RORγt (FL) Reporter Assay, IC50. Type of assay: cell-based. The procedure:
as §1
A reporter assay was used to test functional activity of RORγt modulatory compounds on transcriptional activation driven by full-length human RORγt. Cells used in this assay were transiently co-transfected with three different plasmids, one expressing the GAL4-DNA binding domain (DBD)-RORγt fusion protein under control of a CMV promoter (NH2-Gal4-DBD:RORC-COOH in pCMV-BD, Stratagene #211342), and two reporter plasmids - the firefly luciferase reporter under control of a GAL4 promoter (pFR-Luc 2x GAL4) and Renilla luciferase reporter under control of CMV promoter (pRL-CMV, Promega #E2261). The full-length coding sequence was used for human RORγt, i.e., nucleotides 142-1635 of human RORγt, transcript variant 2, NCBI Accession: NM_001001523.1 (SEQ ID NO:1). HEK293T cells were plated at 35000 per well in 96-well plate in medium of MEM with 8.6% FBS. After 18-22 hours incubation, the transfection was carried out by using a PEI solution with 170.5 ng total DNA/well (50 ng pCMV-BD-ROR plus 20 ng of pFR-Luc reporter and 0.5 ng of pRL-CMV reporter plus 100 ng Carrier DNA (Clontech # 630440) for each well). 4-6 hours after transfection, cells were treated with compounds for overnight in the medium with final concentration of FBS 1.1% and DMSO 0.1%. After overnight (16 to 20 hours) incubation, media were removed and cells were lysed with 20 µL 1x Passive Lysis Buffer (Promega) for 10-15 minutes. Luminescence was measured using a BMG LUMIstar OPTIMA plate reader, after addition of 75 µL/well firefly luciferase buffer, followed by 75 µL/well Renilla luciferase buffer. To calculate the effect of compounds on RORγt activity, firefly values were normalized against values of DMSO only and values of reference compound at saturating concentration, then further normalized against Renilla signals. IC50s were generated by plotting final Renilla normalized data against compound concentration and percent inhibition was calculated against DMSO control.

Each structure is given as a SMILES string.

In the case of `COc1nc2ccc(C(O)c3cnnn3C)cc2c(Cl)c1Cc1ccc(-n2cccn2)cc1` (single isomer, unassigned) [Example 5b, (3-(4-(1H-Pyrazol-1-yl)benzyl)-4-chloro-2-methoxyquinolin-6-yl)(1-methyl-1H-1,2,3-triazol-5-yl)methanol], the IC50 in assay [1] came out at 1500 nM.

`COc1nc2ccc(C(O)c3cnnn3C)cc2c(Cl)c1Cc1ccc(-n2cccn2)cc1` (single isomer, unassigned) [Example 5c, (3-(4-(1H-Pyrazol-1-yl)benzyl)-4-chloro-2-methoxyquinolin-6-yl)(1-methyl-1H-1,2,3-triazol-5-yl)methanol] showed an IC50 in assay [1] of 610 nM.

Consider `COc1nc2ccc(C(O)c3ccc(C)nc3C)cc2c(Cl)c1Cc1ccc(C(F)(F)F)cc1` (single isomer, unassigned) [Example 14b, (4-Chloro-2-methoxy-3-(4-(trifluoromethyl)benzyl)quinolin-6-yl)(2,6-dimethylpyridin-3-yl)methanol], for which the Kd in assay [2] is 130 nM. Further, the inhibition at 6 µM at human RORγt LBD (HEK-293T, 6 µM compound) amounted to 97%. For the same molecule, the 50% inhibitory concentration (IC50) on human RORγt LBD was 120 nM; in assay [1] (Homo sapiens, CD4+ T, 72 h) it was 170 nM.

As to `COc1nc2ccc(C(O)c3ccc(C)nc3C)cc2c(Cl)c1Cc1ccc(C(F)(F)F)cc1` (single isomer, unassigned) [Example 14c, (4-Chloro-2-methoxy-3-(4-(trifluoromethyl)benzyl)quinolin-6-yl)(2,6-dimethylpyridin-3-yl)methanol], the Kd in assay [2] was 100 nM. Further, the “RORγt (LBD) Reporter Assay, % inhibition @ 6 µM” value at human RORγt LBD (6 µM compound, 6 µM) was determined as 98%. Also, the IC50 against human RORγt LBD turned out to be 220 nM; in assay [1] it was 100 nM.

With `COc1nc2ccc(C(O)c3ccc(C#N)cc3)cc2c(Cl)c1Cc1ccc(C#N)cc1` (stereo not shown) [Example 9, 4-((4-Chloro-3-(4-cyanobenzyl)-2-methoxyquinolin-6-yl)(hydroxy)methyl)benzonitrile], the Kd in assay [2] was 680 nM. Besides, at full-length human RORγt (HEK-293T), the inhibition at 0.67 µM came to 42%. Moreover, the IC50 at full-length human RORγt stood at 150 nM.

With `COc1nc2ccc(C(O)c3c(C)noc3C)cc2c(Cl)c1Cc1ccc(C(F)(F)F)cc1` (stereo not shown) [Example 20a, (4-Chloro-2-methoxy-3-(4-(trifluoromethyl)benzyl)quinolin-6-yl)(3,5-dimethylisoxazol-4-yl)methanol], in assay [2], the Kd is 86 nM. For the same molecule, on full-length human RORγt (HEK-293T, 2 µM compound, read-out: RORγt (FL) Reporter Assay, % inhibition @ 2 µM), the inhibition at 2 µM was determined as 97%. Also, the half-maximal inhibitory concentration (IC50) at full-length human RORγt turned out to be 52 nM.

`COc1nc2ccc(C(O)c3c(C)nn(C)c3C)cc2c(Cl)c1Cc1ccc(C(F)(F)F)cc1` (stereo not shown) [Example 34a, (4-Chloro-2-methoxy-3-(4-(trifluoromethyl)benzyl)quinolin-6-yl)(1,3,5-trimethyl-1H-pyrazol-4-yl)methanol]: the equilibrium dissociation constant (Kd) in assay [2] is 11 nM. Moreover, the inhibition at 0.67 µM at full-length human RORγt (HEK-293T) was found to be 95%. Further, the IC50 at full-length human RORγt came out at 20 nM.

One may read the IC50 as the point on the concentration scale where inhibition reaches its midpoint. What is called Kd is the equilibrium constant for the complex coming apart. What is called inhibition is how much of the control response was suppressed.

Source of the values: patent EP3057949B1, “SECONDARY ALCOHOL QUINOLINYL MODULATORS OF ROR GAMMA T” (Janssen Pharmaceutica NV, priority 2013, dated 2015).
